Measured values published in patent US8932597B2 (priority 2008, dated 2015).

Assays:
HuM2e antibody 23K12 = type: binding, human
[1] = test system: anti-M2 human monoclonal antibody Z3G1; type: binding

Substance | Signal (peptides that bind to 23K21 and 8I10) (HuM2e antibody 23K12) | Signal (peptides that show specific binding to Z3G1) [1] | Signal (peptides that bind to Z3G1) [1]
713 (SLLTEVETPIRNEWGQRCNDSSD; epitope peptide) [compound 713] | 705 | 2369 | 
416 (SLLTEVETPIRNEWGCRCNDTSD; epitope peptide) [compound 416] | 794 |  | 2394
572 (SLLTEVETPIRNEKGCRCNDSSD; epitope peptide) [compound 572] | 868 | 2580 | 
611 (SLLTEVETRIRNEWGCRCNDSSD; epitope peptide) [compound 611] | 813 | 2159 | 
586 (SLLTEVETPIRNEWGCRCNISSD; epitope peptide) [compound 586] | 851 |  | 2517
619 (SLLTEVETPIRNEWGCRCNASSD; epitope peptide) [compound 619] | 807 |  | 2454
384 (SLLTEVETPIRNEYGCRCNDSSD; epitope peptide) [compound 384] | 1377 | 2426 | 
598 (SLLTEVETPIRNEWGCRKNDSSD; epitope peptide) [compound 598] | 835 | 2435 | 
346 (SLLMEVETPIRNEWGCRCNDSSD; epitope peptide) [compound 346] | 1616 | 2477 | 
403 (SLLTEVETPIRNEWGCRCNDCSD; epitope peptide) [compound 403] | 772 |  | 2318
528 (MSLLTCVGCSLLTEV; epitope peptide) [compound 528] | 978 |  | 2467
662 (SLLTEVETPIRNFWGCRCNDSSD; epitope peptide) [compound 662] | 747 | 2417 | 
535 (SLLTEVETPIRNEWGCRCNFSSD; epitope peptide) [compound 535] | 963 |  | 2509
580 (SLCTEVGCSLLTEV; epitope peptide) [compound 580] | 858 | 2382 | 
719 (SLLTEVETPIRNEWGCTCNDSSD; epitope peptide) [compound 719] | 700 | 2347 | 
583 (SLLTEVWTPIRNEWGCRCNDSSD; epitope peptide) [compound 583] | 855 | 1889 | 
511 (SLLCEVGCSLLTEV; epitope peptide) [compound 511] | 1044 | 2562 | 
421 (SLLTEVETPIRNEWGCRCNDSED; epitope peptide) [compound 421] | 944 |  | 2527
393 (SLLTEVETPIRNEWGCRCNLSSD; epitope peptide) [compound 393] | 1334 |  | 2634

Substance | Signal (peptides that bind to 23K21 and 8I10) (HuM2e antibody 23K12) | Signal (peptides that show specific binding to Z3G1) [1] | Signal (peptides that bind to Z3G1) [1]
349 (SLATEVETPIRNEWGCRCNDSSD; epitope peptide) [compound 349] | 1583 | 2145 | 
452 (SLLTEVGSLLTEC; epitope peptide) [compound 452] | 1326 | 1862 | 
525 (SLLTEVGCSCLCEV; epitope peptide) [compound 525] | 996 | 1829 | 
665 (SLLTEVETPFRNEWGCRCNDSSD; epitope peptide) [compound 665] | 745 | 2229 | 
542 (MSLCTEVGMSLLTCV; epitope peptide) [compound 542] | 927 |  | 2722
450 (SLLTEVEHPIRNEWGCRCNDSSD; epitope peptide) [compound 450] | 1331 | 2241 | 
538 (LLLTEVETPIRNEWGCRCNDSSD; epitope peptide) [compound 538] | 950 | 1399 | 
702 (SLLTEVETPIRNYWGCRCNDSSD; epitope peptide) [compound 702] | 714 | 2311 | 
536 (MCLCTCVGCSLLTEV; epitope peptide) [compound 536] | 954 |  | 2241
413 (SLLTEVETPIRNEWGCRCNDPSD; epitope peptide) [compound 413] | 797 |  | 2450
408 (SLLTEVETPIRNEWGCRCNDISD; epitope peptide) [compound 408] | 962 |  | 2527
284 (ASLLTEVGSLLTCV; epitope peptide) [compound 284] | 2443 | 2358 | 
701 (SLLTEVETPIRNEWGCKCNDSSD; epitope peptide) [compound 701] | 715 | 2290 | 
537 (SLLTEVEPPIRNEWGCRCNDSSD; epitope peptide) [compound 537] | 953 | 2522 | 
443 (SLLTEVETPIRNEWGCR; epitope peptide) [compound 443] | 864 |  | 2444
327 (SLMTEVETPIRNEWGCRCNDSSD; epitope peptide) [compound 327] | 1729 | 2149 | 
451 (CSLLTEVGMSLLTEC; epitope peptide) [compound 451] | 1326 |  | 2613
520 (VLLTEVETPIRNEWGCRCNDSSD; epitope peptide) [compound 520] | 1014 | 1758 | 
290 (CSLLTEVGSLLTCV; epitope peptide) [compound 290] | 2142 | 2503 | 

Substance | Signal (peptides that bind to 23K21 and 8I10) (HuM2e antibody 23K12) | Signal (peptides that show specific binding to Z3G1) [1] | Signal (peptides that bind to Z3G1) [1]
629 (SLLTEVMTPIRNEWGCRCNDSSD; epitope peptide) [compound 629] | 783 | 2331 | 
573 (SLLTEVETPIRNEWGCRTNDSSD; epitope peptide) [compound 573] | 867 | 2374 | 
637 (SLLTEVETPIRNENGCRCNDSSD; epitope peptide) [compound 637] | 768 | 2265 | 
366 (SLLTEVETPIRNEWWCRCNDSSD; epitope peptide) [compound 366] | 1498 | 2406 | 
659 (SLLTEVETPIRNEWGARCNDSSD; epitope peptide) [compound 659] | 750 | 2396 | 
359 (MSLLTEVGMSCLTEV; epitope peptide) [compound 359] | 1535 |  | 2793
635 (SLLTEVEAPIRNEWGCRCNDSSD; epitope peptide) [compound 635] | 769 | 2325 | 
710 (SLLTEVETPIRREWGCRCNDSSD; epitope peptide) [compound 710] | 707 | 2278 | 
396 (SLLTEVETPIRNEWGCRCNPSSD; epitope peptide) [compound 396] | 849 |  | 2445
671 (SLLTEVETPIRNEPGCRCNDSSD; epitope peptide) [compound 671] | 735 | 2279 | 
437 (SLLTEVETPIR; epitope peptide) [compound 437] | 1012 |  | 2297
372 (CSLLTEVGMSCLTEV; epitope peptide) [compound 372] | 1466 |  | 2554
609 (SLLTEVETHIRNEWGCRCNDSSD; epitope peptide) [compound 609] | 816 | 2288 | 
563 (SLLTEVETPIRNEWGGRCNDSSD; epitope peptide) [compound 563] | 887 | 2270 | 
423 (SLLTEVETPIRNEWGCRCNDSHD; epitope peptide) [compound 423] | 782 |  | 2353
543 (MSLLTCVGMSLLTEV; epitope peptide) [compound 543] | 925 |  | 2627
127 (CSLLTEVETCSLLTEVETC; epitope peptide) [compound 127] | 1647 | 2555 | 
562 (SLLTEVETPIRWEWGCRCNDSSD; epitope peptide) [compound 562] | 890 | 2302 | 
399 (SLLTEVETPIRNEWGCRCNTSSD; epitope peptide) [compound 399] | 795 |  | 2483
